Measurements as given in patent publication US7932269B2, “Sulfonamides as orexin antagonists” (Hoffmann-La Roche Inc., priority 2008, dated 2011).
No end group written: not given here.

Biological target: T1, human orexin-2 (hOX2) receptors (Homo sapiens, UniProt O43614)
T1 construct: expressed in transfected cells
T1 sequence (O43614 1-444): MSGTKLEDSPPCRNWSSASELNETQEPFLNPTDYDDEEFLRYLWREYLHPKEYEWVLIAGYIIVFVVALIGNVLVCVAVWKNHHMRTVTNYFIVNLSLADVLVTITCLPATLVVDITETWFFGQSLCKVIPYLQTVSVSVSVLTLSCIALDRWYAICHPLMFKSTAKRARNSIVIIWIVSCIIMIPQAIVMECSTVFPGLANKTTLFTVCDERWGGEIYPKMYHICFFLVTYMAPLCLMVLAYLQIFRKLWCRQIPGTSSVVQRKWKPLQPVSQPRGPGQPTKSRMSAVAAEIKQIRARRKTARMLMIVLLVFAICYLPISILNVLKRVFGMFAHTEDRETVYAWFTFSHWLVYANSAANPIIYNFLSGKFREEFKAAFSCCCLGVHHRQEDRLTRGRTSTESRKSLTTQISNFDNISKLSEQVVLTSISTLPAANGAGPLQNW
Assay: Intracellular Ca2+ mobilization assay (FLIPR), orexin-A as agonist
Assay type: cell-based
Conditions: CHO(dHFr-) cells stably expressing hOX2; antagonist applied 25 min before EC80 of orexin-A; Kb=IC50/(1+[A]/EC50); read-out: Kb (μM) OX2R (human)
Method: Intracellular Ca^2+ Mobilization Assay
The Chinese Hamster Ovary (dHFr-) mutant cell line stably expressing human orexin-1 (hOX1) or human orexin-2 (hOX2) receptors were maintained in Dulbecco's Modified Eagle Medium (1X) with GlutaMax™ 1, 4500 mg/L D-Glucose and Sodium Pyruvate (Catalog No. 31966-021, Invitrogen, Carlsbad, Calif.), 5% dialyzed fetal calf serum (Catalog No. 26400-044), 100 μg/ml penicillin and 100 μg/ml streptomycin. The cells were seeded at 5×10^4 cells/well in the poly-D-lysine treated, 96-well, black/clear-bottomed plates (Catalog No. BD356640, BD Biosciences, Palo Alto, Calif.). 24 h later, the cells were loaded for 1 hr at 37° C. with 4 μM Flou-4 acetoxymethyl ester (Catalog No. F-14202, Molecular Probes, Eugene, Oreg.) in FLIPR buffer (1×HBSS, 20 mM HEPES, 2.5 mM Probenecid). Hanks' Balanced Salt Solution (HBSS) (10X) (catalog No. 14065-049) and HEPES (1M) (catalog No. 15630-056) were purchased from Invitrogen, Carlsbad, Calif. Probenecid (250 mM) (catalog No. P8761) was from Sigma, Buchs, Switzerland. The cells were washed five times with FLIPR buffer to remove excess dye and intracellular calcium mobilization, [Ca^2+] were measured using a Fluorometric Imaging Plate Reader (FLIPR-96, Molecular Devices, Menlo Park, Calif.) as described previously (Malherbe et al., Mol. Pharmacol., 64, 823-832, 2003). Orexin A (catalog No.1455, Toris Cookson Ltd, Bristol, UK) was used as agonist. Orexin A ([…] stock solution in DMSO) was diluted in FLIPR buffer +0.1% BSA. The EC50 and EC80 values of orexin-A were measured daily from standard agonist concentration-response curves in CHO(dHFr-)-OX1R and —OX2R cell lines. All compounds were dissolved in 100% DMSO. Inhibition curves were determined by addition of 11 concentrations (0.0001-10 μM) of inhibitory compounds and using EC80 value of orexin-A as agonist (a concentration which gave 80% of max agonist response, determined daily). The antagonists were applied 25 min (incubation at 37° C.) before the application of the agonist. Responses were measured as peak increase in fluorescence minus basal, normalized to the maximal stimulatory effect induced by EC80 value of orexin-A or orexin-B. Inhibition curves were fitted according to the Hill equation: y=100/(1+(x/1C50)^nH), where nH=slope factor using Excel-fit 4 software (Microsoft). Kb values were calculated according to the following equation Kb=IC50/(1+[A]/EC50) where A is the concentration of agonist added which is very close to agonist EC80 value, and IC50 and EC50 values were derived from the antagonist inhibition and orexin-A or B agonist curves, respectively.

Compound	Kb [µM]
COc1ccc(N(CC(=O)N2CCCC2c2ccc(F)cc2)S(=O)(=O)c2ccc(OC)cc2)cc1 (stereo not drawn) [Example 41, N-{2-[2-(4-Fluoro-phenyl)-pyrrolidin-1-yl]-2-oxo-ethyl}-4-methoxy-N-(4-methoxy-phenyl)-benzenesulfonamide]	0.0026
COc1ccc(S(=O)(=O)N(CC(=O)N2CCCC2c2ccccc2)c2ccccc2OC)cc1 (stereo not drawn) [Example 43, 4-Methoxy-N-(2-methoxy-phenyl)-N-[2-oxo-2-(2-phenyl-pyrrolidin-1-yl)-ethyl]-benzenesulfonamide]	0.0032
COc1ccc(S(=O)(=O)N(CC(=O)N2CCCC2c2ccc(F)cc2)c2ccc(F)cc2)cc1 (stereo not drawn) [Example 45, N-(4-Fluoro-phenyl)-N-{2-[2-(4-fluoro-phenyl)-pyrrolidin-1-yl]-2-oxo-ethyl}-4-methoxy-benzenesulfonamide]	0.0079
COc1ccc(S(=O)(=O)N(CC(=O)N2CCCC2c2ccccc2)c2cccc(C(F)(F)F)c2)cc1 (stereo not drawn) [Example 47, 4-Methoxy-N-[2-oxo-2-(2-phenyl-pyrrolidin-1-yl)-ethyl]-N-(3-trifluoromethyl-phenyl)-benzenesulfonamide]	0.0077
COc1ccccc1S(=O)(=O)N(CC(=O)N1CCCC1c1ccc(F)cc1)c1ccc(Cl)cc1 (stereo not drawn) [Example 52, N-(4-Chloro-phenyl)-N-{2-[2-(4-fluoro-phenyl)-pyrrolidin-1-yl]-2-oxo-ethyl}-2-methoxy-benzenesulfonamide]	0.0003

System: rat
Assay: not given
Conditions: icv administration; cited from earlier work

Compound	reduction of total REM sleep [%]
OX-A: orexin-A/hypocretin1, 33 amino acid hypothalamic neuropeptide derived from prepro-orexin (QPLPDCCRQKTCSCRLYELLHGAGNHAAGILTL; ends and bridges not checked; cysteine pairing not given here; UniProt O43612 34-66, looked up)	84
